Measured values taken from patent US8198263B2, “Vitamin D derivatives active on the vitamin D nuclear receptor, preparation and uses thereof” (Centre National de la Recherche Scientifique, priority 2005, dated 2012).
Read-outs that look alike come from different tables or passages of the source.

Assays:
[1] = parameters: species or system C57BL/6J mice; conditions: mouse, in vivo, po
Method: FIG. 3: Effects of 1α,25(OH)2D3 and new ligands (compounds A and B) on calcium levels in serum. (FIG. 3.1) Mice were fed either with vehicle (sesame oil), 1α,25(OH)2D3 2 μg/kg, 2 μg/kg compound A or 2 μg/kg compound B during 7 days. (FIG. 3.2) Mice were fed either with vehicle (Veh), 1α,25(OH)2D3 (D3), or compound A during 4 days. Data are presented as mean±SEM. Significant differences are marked as *p<0.05, ***p<0.01.
Male C57BL/6J mice, 6-7 weeks of age, were obtained from Charles River Laboratories France (l'Arbresle, France). All mice were maintained in a temperature-controlled (23° C.) facility with a 12 h light/dark cycle and were given free access to food and water. The mice were fed the EQ12310 diet from UAR (Villemoison sur Orge, France), which contained 16.8% protein, 73.5% carbohydrate and 4.8% fat. The different VDR agonists were dissolved in sesame oil and administered by oral gavage at the indicated doses. The mice were fasted 4 h before harvesting blood for subsequent Calcium measurements, which were performed as described (1).
Thereafter a detailed dose response (0.2, 0.5, 1, and 2 μg/kg) was performed with both 1α,25(OH)2D3, and compound A (FIG. 3.2). In this study compounds were gavaged during 4 consecutive days.

human VDR = molecular target: T1, human VDR (Homo sapiens, UniProt P11473); test: Transfection and transactivation assay (GAL4 DBD-VDR LBD, UAS-TATA-luciferase reporter, 293 EBNA cells); assay type: cell-based; conditions: for VDR agonist character: summary statement
T1 construct: an expression plasmid of GAL4 DBD-VDR LBD; expressed in transfected cells; host or cells: 293 EBNA cells
T1 sequence (P11473 127-423 limits assumed): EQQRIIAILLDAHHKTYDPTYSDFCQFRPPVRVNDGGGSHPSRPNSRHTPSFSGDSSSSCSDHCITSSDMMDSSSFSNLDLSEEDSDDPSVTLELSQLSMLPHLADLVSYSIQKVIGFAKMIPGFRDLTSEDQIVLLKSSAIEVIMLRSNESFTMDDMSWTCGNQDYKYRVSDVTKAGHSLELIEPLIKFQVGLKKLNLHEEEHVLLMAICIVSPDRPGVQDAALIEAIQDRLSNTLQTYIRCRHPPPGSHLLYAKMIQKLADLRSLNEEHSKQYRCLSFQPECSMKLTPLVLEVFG
Description: FIG. 2: Transcriptional activation of VDR by 1α,25(OH)2D3, compound A and compound B. 293 EBNA cells were transiently transfected with a UAS-TATA-luciferase reporter plasmid and an expression plasmid of GAL4 DBD-VDR LBD and subsequently treated with 1α,25(OH)2D3, compound A (A), and compound B (B) at 10^−10 and 10^−9M. Luciferase activity for each sample was normalized to the β-galactosidase activity. Data is shown as fold induction of agonist induced luciferase activity divided by luciferase activity of vehicle.
The human VDR LBD was subcloned into the pG4M derived plasmid as a Gal fusion protein. Transient transfection experiments for the analysis of VDR activation were performed in 48 wells plates, using a standard calcium phosphate coprecipitation technique as described (11). 293 EBNA cells were seeded (6.0×10^4 cells per well) and incubated for 24 hours at 37° C. in medium containing Dulbecco medium (DMEM+1 g/L glucose), 10% FCS, gentamycine and 1 mg/ml G418 (geneticin). 293 EBNA cells were transiently transfected with 12.5 ng of Gal-4-VDR LBD plasmid, 10 ng of UAS-TATA-luciferase reporter plasmid, and 37.5 ng of PCH110 internal control recombinant expressing β-galactoside plasmid. After cells were incubated for 8 hours at 37° C., the medium was replaced and the compounds were added in optimized serial dilutions. After 20 hours at 37° C., cells were washed with PBS and harvested in Passiv lysis buffer (Promega). The cell lysates were assayed for lusiferase and β-galactosidase activity. Luciferase activity for each sample was normalized to β-galactosidase activity. Cells were treated with 1α, 25(OH)2D3, compound A, and compound B. All experiments were performed in duplicates.

Row | SMILES | dose at which the effect on serum calcium levels became significant / caused hypercalcemia [1] | dose at which the effect on serum calcium levels became significant / caused hypercalcemia ([1]; male, C57BL/6J, 4 days) | effect on serum calcium levels compared with 1α,25(OH)2D3 [1] | transcriptional activities of human VDR induced, times more efficiently than 1α,25(OH)2D3 (human VDR; at 10^−10 M, 293 EBNA cells, luciferase normalized to β-galactosidase) | VDR agonist character (human VDR)
1 | C=C1/C(=C\C=C2/CCC[C@]3(C)[C@@H]([C@H](C)CCCC(C)(C)O)CC[C@@H]23)C[C@@H](O)C[C@@H]1O [1α,25(OH)2D3, reference compound] | 1 µg/kg | – | – | – | –
2 | C=C1/C(=C\C=C2/CCC[C@@]3(C)[C@H]2CC[C@@H]3[C@]2(C)C[C@H](CC(C)(C)O)CO2)C[C@@H](O)C[C@@H]1O [compound A, (1R,3S,5Z)-5-((E)-2-((1S,3aS,7aS)-hexahydro-1-((2S,4S)-tetrahydro-4-(2-hydroxy-2-methylpropyl)-2-methylfuran-2-yl)-7a-methyl-1H-inden-4(7aH)-ylidene)ethylidene)-4-methylenecyclohexane-1,3-diol] | – | 2 µg/kg | weaker effect on serum calcium levels | 12 times | superagonist activity
3 | C=C1/C(=C\C=C2/CCC[C@@]3(C)[C@H]2CC[C@@H]3[C@]2(C)C[C@@H](CC(C)(C)O)CO2)C[C@@H](O)C[C@@H]1O [compound B, (1R,3S,5Z)-5-((E)-2-((1S,3aS,7aS)-hexahydro-1-((2S,4R)-tetrahydro-4-(2-hydroxy-2-methylpropyl)-2-methylfuran-2-yl)-7a-methyl-1H-inden-4(7aH)-ylidene)ethylidene)-4-methylenecyclohexane-1,3-diol] | – | – | – | – | behaves like 1α,25(OH)2D3
